This note sets out measurements from the supplement of paper PMC10627819.
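Also: first quartile when negative (synergy) and third quartile when positive (antagonism).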

This assay has as its system S. aureus DSM 20231. Kind of assay: Bliss interaction score (quartile over a dose matrix) (fitness difference); higher = more antagonism (negative = synergy). Summed up:
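The Bliss score is observed minus expected fitness, where expected fitness is the product of the single-drug fitness values inferred from the combination data. Fitness is the OD595 at the onset of stationary phase over the plate's robust no-drug mean, capped at 1. Scores are summarised by quartiles over technical, biological and donor/recipient replicates.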
As to `CC(=O)Oc1cccc2c1C(=O)c1c(OC(C)=O)cc(C(=O)O)cc1C2=O` [Diacerein] + C[C@H]1COc2c(N3CCN(C)CC3)c(F)cc3c(=O)c(C(=O)O)cn1c23 [Levofloxacin], the Bliss interaction score is -0.237.
The figure for `CC(=O)Oc1ccccc1C(=O)O` [Acetylsalicylicacid] + C[C@]12CC[C@@H]3c4ccc(O)cc4CC[C@H]3[C@@H]1CC[C@@H]2O [Estradiol] is 0.162; for `COCCOC(=O)C1=C(C)NC(C)=C(C(=O)OC/C=C/c2ccccc2)C1c1cccc([N+](=O)[O-])c1` (stereo unspecified) [Cilnidipine] + CN(C)[C@@H]1C(O)=C(C(N)=O)C(=O)[C@@]2(O)C(O)=C3C(=O)c4c(O)ccc(Cl)c4[C@@](C)(O)[C@H]3C[C@@H]12 [Clortetracycline] it is -0.323.
The figure for `COCCOC(=O)C1=C(C)NC(C)=C(C(=O)OC/C=C/c2ccccc2)C1c1cccc([N+](=O)[O-])c1` (stereo unspecified) [Cilnidipine] + Cn1nnc(-c2ccc(-c3ccc(N4C[C@H](CO)OC4=O)cc3F)cn2)n1 [Tedizolid] is -0.429; for `CO/N=C(\C(=O)N[C@@H]1C(=O)N2C(C(=O)O)=C(COC(N)=O)CS[C@H]12)c1ccco1` [Cefuroxime] + CCCSc1nc(N[C@@H]2C[C@H]2c2ccc(F)c(F)c2)c2nnn([C@@H]3C[C@H](OCCO)[C@@H](O)[C@H]3O)c2n1 [Ticagrelor] it is 0.137.
For `CC(C)c1c(C(=O)Nc2ccccc2)c(-c2ccccc2)c(-c2ccc(F)cc2)n1CC[C@@H](O)C[C@@H](O)CC(=O)O` [Atorvastatin] + CO/N=C(\C(=O)N[C@@H]1C(=O)N2C(C(=O)O)=C(COC(C)=O)CS[C@H]12)c1csc(N)n1 [Cefotaxime], the Bliss interaction score was -0.17.
To `CN(C)[C@@H]1C(O)=C(C(N)=O)C(=O)[C@@]2(O)C(O)=C3C(=O)c4c(O)ccc(Cl)c4[C@@](C)(O)[C@H]3C[C@@H]12` [Clortetracycline] + CC[C@H](c1ccc(O)cc1)[C@@H](CC)c1ccc(O)cc1 [Hexestrol] belongs -0.204.
As for `COCCOC(=O)C1=C(C)NC(C)=C(C(=O)OC/C=C/c2ccccc2)C1c1cccc([N+](=O)[O-])c1` (stereo unspecified) [Cilnidipine] + CC(=O)NC[C@H]1CN(c2ccc(N3CCOCC3)c(F)c2)C(=O)O1 [Linezolid], the Bliss interaction score is -0.254.
The figure for `O=C(O)c1cc(-c2ccc(F)cc2F)ccc1O` [Diflunisal] + CC(=O)O[C@H]1C[C@@]2(C)[C@@H](C[C@@H](O)[C@H]3[C@@]4(C)CC[C@@H](O)[C@@H](C)[C@@H]4CC[C@@]32C)/C1=C(\CCC=C(C)C)C(=O)O [Fusidic acid] is 0.199; for `COCCOC(=O)C1=C(C)NC(C)=C(C(=O)OC/C=C/c2ccccc2)C1c1cccc([N+](=O)[O-])c1` (stereo unspecified) [Cilnidipine] + CC1(C)S[C@@H]2[C@H](NC(=O)Cc3ccccc3)C(=O)N2[C@H]1C(=O)O [PenicillinG] it is -0.229.
The figure for `CC(=O)Oc1cccc2c1C(=O)c1c(OC(C)=O)cc(C(=O)O)cc1C2=O` [Diacerein] + COc1cc(Cc2cnc(N)nc2N)cc(OC)c1OC [Trimethoprim] is -0.243; for `O=C(O)c1cn(C2CC2)c2cc(N3CCNCC3)c(F)cc2c1=O` [Ciprofloxacin] + COc1cc2ncnc(Nc3ccc(F)c(Cl)c3)c2cc1OCCCN1CCOCC1 [Gefitinib] it is -0.336; for `O=C(O)c1cn(C2CC2)c2cc(N3CCNCC3)c(F)cc2c1=O` [Ciprofloxacin] + CCCSc1nc(N[C@@H]2C[C@H]2c2ccc(F)c(F)c2)c2nnn([C@@H]3C[C@H](OCCO)[C@@H](O)[C@H]3O)c2n1 [Ticagrelor] it is -0.375.
Turning to `COCCOC(=O)C1=C(C)NC(C)=C(C(=O)OC/C=C/c2ccccc2)C1c1cccc([N+](=O)[O-])c1` (stereo unspecified) [Cilnidipine] + CN(C)C(=O)C(CCN1CCC(O)(c2ccc(Cl)cc2)CC1)(c1ccccc1)c1ccccc1 [Loperamide], the Bliss interaction score is -0.32.
`CC(=O)Oc1cccc2c1C(=O)c1c(OC(C)=O)cc(C(=O)O)cc1C2=O` [Diacerein] + CC(=O)NC[C@H]1CN(c2ccc(N3CCOCC3)c(F)c2)C(=O)O1 [Linezolid]: the Bliss interaction score is -0.29.
The figure for `CN(C)[C@@H]1C(O)=C(C(N)=O)C(=O)[C@@]2(O)C(O)=C3C(=O)c4c(O)ccc(Cl)c4[C@@](C)(O)[C@H]3C[C@@H]12` [Clortetracycline] + OCc1cc(C(O)CNCCCCCCOCCCCc2ccccc2)ccc1O [Salmeterol] is -0.118.
